Assay results taken from PubChem BioAssay (NCI).
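Growth conditions: 96-well plates. Treatment: test compound, 48 hours, 5 concentrations. Analysis: linear interpolation between bracketing concentrations; unreached endpoints set to highest concentration. At the GI50, growth is halved. The concentration for full growth arrest is given as TGI.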

Key:
Assay in all cases: inhibition of tumour cell growth, NCI panel, 48 h
K-562 leukemia = test system: K-562 leukemia
SW-620 colon = test system: SW-620 colon
SK-MEL-28 melanoma = test system: SK-MEL-28 melanoma
OVCAR-8 ovarian = test system: OVCAR-8 ovarian
OVCAR-3 ovarian = test system: OVCAR-3 ovarian
SN12C renal = test system: SN12C renal
SF-268 CNS = test system: SF-268 CNS
UO-31 renal = test system: UO-31 renal
UACC-257 melanoma = test system: UACC-257 melanoma
M14 melanoma = test system: M14 melanoma
COLO 205 colon = test system: COLO 205 colon
RXF 393 renal = test system: RXF 393 renal
HCT-116 colon = test system: HCT-116 colon
U251 CNS = test system: U251 CNS
SNB-19 CNS = test system: SNB-19 CNS
HL-60(TB) leukemia = test system: HL-60(TB) leukemia
HT29 colon = test system: HT29 colon
MDA-MB-231 breast = test system: MDA-MB-231 breast
SF-539 CNS = test system: SF-539 CNS
IGROV1 ovarian = test system: IGROV1 ovarian
UACC-62 melanoma = test system: UACC-62 melanoma
NCI-H460 lung = test system: NCI-H460 lung
NCI-H23 lung = test system: NCI-H23 lung
TK-10 renal = test system: TK-10 renal
HS 578T breast = test system: HS 578T breast
SF-295 CNS = test system: SF-295 CNS
SK-MEL-2 melanoma = test system: SK-MEL-2 melanoma
HOP-92 NSCLC = test system: HOP-92 NSCLC
A498 renal = test system: A498 renal
KM12 colon = test system: KM12 colon

C=CC(=O)Nc1ccc(C(=O)/C=C/c2ccc(N(C)C)cc2)c(O)c1
TGI (K-562 leukemia): > 100 µM | GI50 (SW-620 colon): 1.67 µM | TGI (SW-620 colon): 3.89 µM | GI50 (SK-MEL-28 melanoma): 2.02 µM | TGI (SK-MEL-28 melanoma): 6.44 µM | GI50 (OVCAR-8 ovarian): 1.68 µM | TGI (OVCAR-8 ovarian): 4.28 µM | GI50 (OVCAR-3 ovarian): 2.79 µM | TGI (OVCAR-3 ovarian): 13.2 µM | GI50 (SN12C renal): 2.03 µM | TGI (SN12C renal): 8.27 µM | GI50 (SF-268 CNS): 4 µM | TGI (SF-268 CNS): 22.9 µM | GI50 (UO-31 renal): 1.31 µM | TGI (UO-31 renal): 14.3 µM | GI50 (UACC-257 melanoma): 3.5 µM | TGI (UACC-257 melanoma): 18.6 µM | GI50 (M14 melanoma): 1.97 µM | TGI (M14 melanoma): 6.62 µM | GI50 (COLO 205 colon): 3.49 µM | TGI (COLO 205 colon): 11.9 µM | GI50 (RXF 393 renal): 1.43 µM | TGI (RXF 393 renal): 3.5 µM | GI50 (HCT-116 colon): 1.49 µM | TGI (HCT-116 colon): 2.9 µM | GI50 (U251 CNS): 2.73 µM | TGI (U251 CNS): 11.9 µM | GI50 (SNB-19 CNS): 3.72 µM | TGI (SNB-19 CNS): 16.1 µM | GI50 (HL-60(TB) leukemia): 2.54 µM | TGI (HL-60(TB) leukemia): 8.45 µM | GI50 (HT29 colon): 2.37 µM | TGI (HT29 colon): 7.08 µM | GI50 (MDA-MB-231 breast): 2.41 µM | TGI (MDA-MB-231 breast): 7.49 µM | GI50 (SF-539 CNS): 1.71 µM | TGI (SF-539 CNS): 3.78 µM | GI50 (IGROV1 ovarian): 3.51 µM | TGI (IGROV1 ovarian): 15.1 µM | GI50 (UACC-62 melanoma): 1.76 µM | TGI (UACC-62 melanoma): 6.54 µM | GI50 (NCI-H460 lung): 2.75 µM | TGI (NCI-H460 lung): 10.9 µM | GI50 (NCI-H23 lung): 3.26 µM | TGI (NCI-H23 lung): 14.1 µM | GI50 (TK-10 renal): 3.16 µM | TGI (TK-10 renal): 11.8 µM | GI50 (HS 578T breast): 3.26 µM | TGI (HS 578T breast): > 100 µM | GI50 (SF-295 CNS): 5.69 µM | TGI (SF-295 CNS): 37.1 µM | GI50 (SK-MEL-2 melanoma): 2.94 µM | TGI (SK-MEL-2 melanoma): 11.5 µM | GI50 (HOP-92 NSCLC): 1.78 µM | TGI (HOP-92 NSCLC): 17 µM | GI50 (A498 renal): 10.5 µM | TGI (A498 renal): 36.8 µM | GI50 (KM12 colon): 3.19 µM | TGI (KM12 colon): 12.5 µM
